How the values were obtained:
[1] = target: T1, SIK1 (Homo sapiens, UniProt P57059); assay: ADP-Glo kinase assay, SIK1; format: biochemical
T1 construct: purchased Carna Biosciences 02-131
How it was run: (§1)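 Kinase reactions ran 120 min at room temperature after ATP addition to enzyme-substrate mix. Remaining ATP was depleted (40 min) and ADP converted to ATP for luciferase detection (30 min), signal rising with activity. Final 1% DMSO and 10 μM staurosporine served as negative and positive controls.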

[2] = target: T2, SIK3 (Homo sapiens, UniProt Q9Y2K2); assay: ADP-Glo kinase assay, SIK3; format: biochemical
T2 construct: purchased SignalChem S12-11G-100
How it was run: as §1

[3] = test system: LPS-induced TNFα in monocytes; assay: Monocytes assay: LPS-triggered TNFα (ELISA); format: cell-based, human; details: Homo sapiens, Monocyte, LPS-triggered TNFα inhibition
How it was run: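 TNFα secretion was triggered with 200 ng/mL LPS for 4 h in human blood CD14+ monocytes after 1 h compound pretreatment at 37 °C, with 0.2% final DMSO. Supernatants were analysed by streptavidin-HRP/luminol ELISA, and percentage inhibition at each concentration was derived relative to control wells.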

[4] = test system: LPS triggered IL-10 secretion in monocytes; assay: Monocytes assay: LPS-triggered IL-10 (ELISA); format: cell-based, human; details: Homo sapiens, Monocyte, LPS-triggered IL-10 induction, median maximal fold change vs LPS only, read-out: IL-10 FCmax median
How it was run: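 CD14+ monocytes bead-isolated from human PBMCs, pretreated with compound 1 h at 37 °C (0.2% DMSO), then stimulated with LPS 200 ng/mL for 4 h. Supernatant IL-10 measured by chemiluminescent sandwich ELISA; fold change versus LPS only per concentration, reported as maximal fold change (FCmax).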

T2 sequence (Q9Y2K2 59-365 limits assumed): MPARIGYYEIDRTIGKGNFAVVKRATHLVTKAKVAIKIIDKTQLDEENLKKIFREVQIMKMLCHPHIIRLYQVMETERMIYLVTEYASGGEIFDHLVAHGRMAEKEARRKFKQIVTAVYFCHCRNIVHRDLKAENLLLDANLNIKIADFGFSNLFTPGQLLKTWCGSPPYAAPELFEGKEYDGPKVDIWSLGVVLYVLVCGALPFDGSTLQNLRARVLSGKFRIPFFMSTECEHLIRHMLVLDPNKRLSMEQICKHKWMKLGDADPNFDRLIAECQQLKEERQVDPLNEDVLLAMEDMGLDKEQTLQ
T1 sequence (P57059 whole entry): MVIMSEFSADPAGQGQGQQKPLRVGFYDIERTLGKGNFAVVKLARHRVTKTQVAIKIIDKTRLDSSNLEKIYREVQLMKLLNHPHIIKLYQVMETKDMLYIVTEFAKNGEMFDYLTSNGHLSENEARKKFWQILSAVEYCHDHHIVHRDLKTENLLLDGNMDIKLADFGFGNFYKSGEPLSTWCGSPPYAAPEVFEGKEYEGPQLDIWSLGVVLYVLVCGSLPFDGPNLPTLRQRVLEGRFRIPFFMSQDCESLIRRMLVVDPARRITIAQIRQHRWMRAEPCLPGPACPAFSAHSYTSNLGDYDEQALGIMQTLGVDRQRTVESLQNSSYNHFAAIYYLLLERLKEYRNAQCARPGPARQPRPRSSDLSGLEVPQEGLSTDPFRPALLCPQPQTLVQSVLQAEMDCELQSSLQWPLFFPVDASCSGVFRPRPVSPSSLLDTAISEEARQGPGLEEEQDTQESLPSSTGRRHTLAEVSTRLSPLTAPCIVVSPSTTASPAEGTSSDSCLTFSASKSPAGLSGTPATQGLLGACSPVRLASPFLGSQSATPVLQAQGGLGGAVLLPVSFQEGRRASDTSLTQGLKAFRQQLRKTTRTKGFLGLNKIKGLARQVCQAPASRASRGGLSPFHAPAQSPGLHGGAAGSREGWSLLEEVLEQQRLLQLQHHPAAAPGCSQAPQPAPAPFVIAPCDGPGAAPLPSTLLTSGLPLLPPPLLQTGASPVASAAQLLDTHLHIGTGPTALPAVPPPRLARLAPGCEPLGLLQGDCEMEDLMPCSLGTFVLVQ

Compound	IC50 [1]	IC50 [2]	EC50 [3]	maximal fold induction [4]
COc1cc(-c2cnc3cc(C4COC4)ccn23)cc(OC(F)F)c1C(=O)NC1CC1 [Cpd 174, N-cyclopropyl-2-(difluoromethoxy)-6-methoxy-4-[7-(oxetan-3-yl)imidazo[1,2-a]pyridin-3-yl]benzamide]	100 to 500 nM	0.01 to 10 nM	100 to 1000 nM	1.5 to 4.5
COc1cc(-c2cnc3cc(C(C)(C#N)CO)ccn23)cc(OC(F)F)c1C(=O)NC1CC1 (centres unmarked) [Cpd 176, 4-[7-(1-cyano-2-hydroxy-1-methyl-ethyl)imidazo[1,2-a]pyridin-3-yl]-N-cyclopropyl-2-(difluoromethoxy)-6-methoxy-benzamide]	> 500 nM	10 to 100 nM	100 to 1000 nM	1.5 to 4.5
COCC(C)(C#N)c1ccn2c(-c3cc(OC)c(C(=O)NC4CC4)c(OC(F)F)c3)cnc2c1 (centres unmarked) [Cpd 195, 4-[7-(1-cyano-2-methoxy-1-methyl-ethyl)imidazo[1,2-a]pyridin-3-yl]-N-cyclopropyl-2-(difluoromethoxy)-6-methoxy-benzamide]	> 500 nM	10 to 100 nM	100 to 1000 nM	< 1.5
COc1cc(-c2cnc3cc(C4COC4)ccn23)cc(OC(F)F)c1C(=O)N[C@@H]1C[C@@H]1F [Cpd 206, 2-(difluoromethoxy)-N-[(1R,2S)-2-fluorocyclopropyl]-6-methoxy-4-[7-(oxetan-3-yl)imidazo[1,2-a]pyridin-3-yl]benzamide]	100 to 500 nM	0.01 to 10 nM	100 to 1000 nM	1.5 to 4.5
COc1cc(-c2cnn3cc(C4COC4)ccc23)cc(OC(F)F)c1C(=O)N[C@@H]1C[C@@H]1F [Cpd 218, 2-(difluoromethoxy)-N-[(1R,2S)-2-fluorocyclopropyl]-6-methoxy-4-[6-(oxetan-3-yl)pyrazolo[1,5-a]pyridin-3-yl]benzamide]	100 to 500 nM	0.01 to 10 nM	0.1 to 100 nM	1.5 to 4.5
COc1cc(-c2cnc3cc(C4(F)COC4)ccn23)cc(OC(F)F)c1C(=O)N[C@@H]1C[C@@H]1F [Cpd 224, 2-(difluoromethoxy)-N-[(1R,2S)-2-fluorocyclopropyl]-4-[7-(3-fluorooxetan-3-yl)imidazo[1,2-a]pyridin-3-yl]-6-methoxy-benzamide]	100 to 500 nM	0.01 to 10 nM	100 to 1000 nM	1.5 to 4.5
COc1cc(-c2cnn3cc(C(C)(C)O)ccc23)cc(OC(F)F)c1C(=O)N[C@@H]1C[C@@H]1F [Cpd 227, 2-(difluoromethoxy)-N-[(1R,2S)-2-fluorocyclopropyl]-4-[6-(1-hydroxy-1-methyl-ethyl)pyrazolo[1,5-a]pyridin-3-yl]-6-methoxy-benzamide]	> 500 nM	0.01 to 10 nM	100 to 1000 nM	< 1.5
COc1cc(-c2cnn3cc(C(C)(C)CO)ccc23)cc(OC(F)F)c1C(=O)NC1CC1 [Cpd 236, N-cyclopropyl-2-(difluoromethoxy)-4-[6-(2-hydroxy-1,1-dimethyl-ethyl)pyrazolo[1,5-a]pyridin-3-yl]-6-methoxy-benzamide]	> 500 nM	10 to 100 nM	100 to 1000 nM	< 1.5
COc1cc(-c2cnn3cc(C(C)(C)CO)ccc23)cc(OC(F)F)c1C(=O)N[C@@H]1C[C@@H]1F [Cpd 242, 2-(difluoromethoxy)-N-[(1R,2S)-2-fluorocyclopropyl]-4-[6-(2-hydroxy-1,1-dimethyl-ethyl)pyrazolo[1,5-a]pyridin-3-yl]-6-methoxy-benzamide]	> 500 nM	0.01 to 10 nM	0.1 to 100 nM	< 1.5
COc1cc(-c2cnn3cc(C4(C#N)CCOCC4)ccc23)cc(OC(F)F)c1C(=O)N[C@@H]1C[C@@H]1F [Cpd 243, 4-[6-(4-cyanotetrahydropyran-4-yl)pyrazolo[1,5-a]pyridin-3-yl]-2-(difluoromethoxy)-N-[(1R,2S)-2-fluorocyclopropyl]-6-methoxy-benzamide]	> 500 nM	0.01 to 10 nM	100 to 1000 nM	< 1.5
COc1cc(-c2cnn3cc(C(C)(C)C#N)ccc23)cc(OC)c1C(=O)N[C@@H]1C[C@@H]1F [Cpd 245, 4-[6-(1-cyano-1-methyl-ethyl)pyrazolo[1,5-a]pyridin-3-yl]-N-[(1R,2S)-2-fluorocyclopropyl]-2,6-dimethoxy-benzamide]	> 500 nM	10 to 100 nM	100 to 1000 nM	< 1.5
COc1cc(-c2cnn3cc(C4(C(N)=O)CCC4)ccc23)cc(OC(F)F)c1C(=O)N[C@@H]1C[C@@H]1F [Cpd 254, 4-[6-(1-carbamoylcyclobutyl)pyrazolo[1,5-a]pyridin-3-yl]-2-(difluoromethoxy)-N-[(1R,2S)-2-fluorocyclopropyl]-6-methoxy-benzamide]	> 500 nM	0.01 to 10 nM	100 to 1000 nM	< 1.5
COc1cc(-c2cnn3cc(C(C)(C)N)ccc23)cc(OC(F)F)c1C(=O)N[C@@H]1C[C@@H]1F [Cpd 256, 4-[6-(1-amino-1-methyl-ethyl)pyrazolo[1,5-a]pyridin-3-yl]-2-(difluoromethoxy)-N-[(1R,2S)-2-fluorocyclopropyl]-6-methoxy-benzamide]	> 500 nM	0.01 to 10 nM	100 to 1000 nM	< 1.5

Now from value to molecule, other results behind:

IC50 [1]	IC50 [2]	EC50 [3]	Compound	maximal fold induction [4]
> 500 nM	10 to 100 nM	1000 to 5000 nM	COc1cc(-c2cnc3cc(C(O)CC#N)ccn23)cc(OC(F)F)c1C(=O)NC1CC1 (centres unmarked) [Cpd 175, 4-[7-(2-cyano-1-hydroxy-ethyl)imidazo[1,2-a]pyridin-3-yl]-N-cyclopropyl-2-(difluoromethoxy)-6-methoxy-benzamide]	1.5 to 4.5
> 500 nM	0.01 to 10 nM	100 to 1000 nM	COc1cc(-c2cnc3cc(C4(O)CCC4)ccn23)cc(OC(F)F)c1C(=O)N[C@@H]1C[C@@H]1F [Cpd 205, 2-(difluoromethoxy)-N-[(1R,2S)-2-fluorocyclopropyl]-4-[7-(1-hydroxycyclobutyl)imidazo[1,2-a]pyridin-3-yl]-6-methoxy-benzamide]	1.5 to 4.5
> 500 nM	0.01 to 10 nM	100 to 1000 nM	COc1cc(-c2cnc3cc(C4(F)COC4)ccn23)cc(OC(F)F)c1C(=O)NC1CC1 [Cpd 207, N-cyclopropyl-2-(difluoromethoxy)-4-[7-(3-fluorooxetan-3-yl)imidazo[1,2-a]pyridin-3-yl]-6-methoxy-benzamide]	< 1.5
> 500 nM	10 to 100 nM	0.1 to 100 nM	COc1cc(-c2cnn3cc(C(C)(C)C#N)ccc23)cc(OC(F)F)c1C(=O)NC1CC1 [Cpd 208, 4-[6-(1-cyano-1-methyl-ethyl)pyrazolo[1,5-a]pyridin-3-yl]-N-cyclopropyl-2-(difluoromethoxy)-6-methoxy-benzamide]	< 1.5
> 500 nM	0.01 to 10 nM	100 to 1000 nM	COc1cc(-c2cnc3cc(C(C)(C)O)ccn23)cc(OC(F)F)c1C(=O)N[C@@H]1C[C@@H]1F [Cpd 211, 2-(difluoromethoxy)-N-[(1R,2S)-2-fluorocyclopropyl]-4-[7-(1-hydroxy-1-methyl-ethyl)imidazo[1,2-a]pyridin-3-yl]-6-methoxy-benzamide]	1.5 to 4.5
100 to 500 nM	10 to 100 nM	100 to 1000 nM	COc1cc(-c2cnn3cc(C4COC4)ccc23)cc(OC(F)F)c1C(=O)NC1CC1 [Cpd 216, N-cyclopropyl-2-(difluoromethoxy)-6-methoxy-4-[6-(oxetan-3-yl)pyrazolo[1,5-a]pyridin-3-yl]benzamide]	< 1.5
> 500 nM	0.01 to 10 nM	100 to 1000 nM	COc1cc(-c2cnc3cc(C(C)(C)C#N)cnn23)cc(OC(F)F)c1C(=O)N[C@@H]1C[C@@H]1F [Cpd 228, 4-[7-(1-cyano-1-methyl-ethyl)imidazo[1,2-b]pyridazin-3-yl]-2-(difluoromethoxy)-N-[(1R,2S)-2-fluorocyclopropyl]-6-methoxy-benzamide]	< 1.5
> 500 nM	0.01 to 10 nM	100 to 1000 nM	COc1cc(-c2cnn3cc(C(C)(C)C#N)cnc23)cc(OC(F)F)c1C(=O)N[C@@H]1C[C@@H]1F [Cpd 231, 4-[6-(1-cyano-1-methyl-ethyl)pyrazolo[1,5-a]pyrimidin-3-yl]-2-(difluoromethoxy)-N-[(1R,2S)-2-fluorocyclopropyl]-6-methoxy-benzamide]	< 1.5
> 500 nM	0.01 to 10 nM	100 to 1000 nM	COc1cc(-c2cnn3cc(C4COCCO4)ccc23)cc(OC(F)F)c1C(=O)NC1CC1 (centres unmarked) [Cpd 232, N-cyclopropyl-2-(difluoromethoxy)-4-[6-(1,4-dioxan-2-yl)pyrazolo[1,5-a]pyridin-3-yl]-6-methoxy-benzamide]	< 1.5
> 500 nM	0.01 to 10 nM	100 to 1000 nM	COc1cc(-c2cnn3cc(C4(C#N)CCOCC4)ccc23)cc(OC(F)F)c1C(=O)NC1CC1 [Cpd 237, 4-[6-(4-cyanotetrahydropyran-4-yl)pyrazolo[1,5-a]pyridin-3-yl]-N-cyclopropyl-2-(difluoromethoxy)-6-methoxy-benzamide]	< 1.5
